This passage reports Activity and IC50 results from ChEMBL document CHEMBL1156348, “Coumarins with monoamine oxidase inhibitory activity and antioxidative coumarino-lignans from Hibiscus syriacus” (J Nat Prod, 2001).

The species entered for one assay is Mus musculus. The assay is described as follows: Inhibition of mouse brain monoamine oxidase up to 70 ug/mL by Krajl method.
For another assay, the system named is Liver microsomes. The assay can be described thus: Antioxidant activity in rat liver microsomes assessed as inhibition of lipid peroxidation by TBA method. Type of assay: functional, Microsome. Background: Liver microsomes are a subcellular fraction often used to study metabolism.
The nature of assay [1]: Inhibition of mouse brain monoamine oxidase by Krajl method.

In brackets after ≈: the same amount, converted by molar mass. Activity calls are given as the source filed them. The calls are words filed in the database; no cut-off is given here.

With `COc1cc([C@H]2Oc3c(OC)cc4ccc(=O)oc4c3O[C@@H]2C)cc(OC)c1O`, in the assay listed under Mus musculus, the outcome was inactive. For the same molecule, the IC50 (in general, the concentration that gives 50% inhibition) with Liver microsomes came to 1.4 µg/mL (≈ 3.5 µM).
`COc1c(OC)c(O)c2oc(=O)ccc2c1OC` returned an IC50 in assay [1] of 44.5 µg/mL (≈ 176 µM).
As for `COc1cc([C@H]2Oc3c(OC)cc4ccc(=O)oc4c3O[C@@H]2CO)ccc1O` [CLEOMISCOSIN A], the IC50 with Liver microsomes was 9 µg/mL (≈ 23.3 µM).
Take `COc1cc([C@H]2Oc3c(OC)cc4ccc(=O)oc4c3O[C@@H]2CO)cc(OC)c1O` [CLEOMISCOSIN C]: the half-maximal inhibitory concentration (IC50) with Liver microsomes was found to be 0.7 µg/mL (≈ 1.68 µM).
Still for that read-out and setting: for `COc1cc([C@@H]2Oc3c(c(OC)cc4ccc(=O)oc34)O[C@H]2CO)cc(OC)c1O` [CLEOMISCOSIN D] the value was 5.5 µg/mL (≈ 13.2 µM).
On to `COc1cc2ccc(=O)oc2cc1O` [SCOPOLETIN], for which the half-maximal inhibitory concentration (IC50) in assay [1] was 19.4 µg/mL (≈ 101 µM).
Take VITAMIN E: the half-maximal inhibitory concentration (IC50) with Liver microsomes turned out to be 0.8 µg/mL.
